Reference: patent publication US9125913B2, “Bcl-2-selective apoptosis-inducing agents for the treatment of cancer and immune diseases” (AbbVie Inc., priority 2008, dated 2015)

What was measured:
GST-Bcl-2 = experiment: TR-FRET binding assay, Bcl-2; conditions: TR-FRET Ki values
Method in brief: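 Ki values come from Wang's competitive-binding equation applied to TR-FRET signal (excitation 340/35 nm; emission 520/525 nm F-Bak peptide, 495/510 nm Tb antibody). Protein, probe and antibody incubated with compound 3 h at room temperature; dilution series began at 50 μM as 2× stock in 10% DMSO.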

FL5.12/Bcl-2 cells = experiment: FL5.12/Bcl-2 cell viability assay; type: cell-based, murine; conditions: ratio of canine platelet EC50 to FL5.12/Bcl-2 EC50
Method in brief: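 Viability measured with CellTiter-Glo after 24 h compound treatment at various concentrations, following 48 h IL-3 withdrawal (no WEHI-3B medium). Cells: prolymphocytic mouse FL5.12 line stably transfected to overexpress Bcl-2, cultured at 37 °C, 5% CO2.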

Structure (SMILES) | Binding selectivity ratio (Bcl-XL Ki/Bcl-2 Ki) (GST-Bcl-2) | Selectivity Ratio (Platelet EC50/FL5.12/Bcl-2 EC50) (FL5.12/Bcl-2 cells)
O=C(NS(=O)(=O)c1ccc(NCCCN2CCCC2)c([N+](=O)[O-])c1)c1ccc(N2CCN(Cc3cc(OCCN4CCOCC4)ccc3-c3ccc(Cl)cc3)CC2)cc1Oc1ccc2[nH]ccc2c1 [Example 136, 4-(4-{[4′-chloro-4-(2-morpholin-4-ylethoxy)-1,1′-biphenyl-2-yl]methyl}piperazin-1-yl)-2-(1H-indol-5-yloxy)-N-({3-nitro-4-[(3-pyrrolidin-1-ylpropyl)amino]phenyl}sulfonyl)benzamide] | 238.9 | >263
CN(C)CCOc1ccc(-c2ccc(Cl)cc2)c(CN2CCN(c3ccc(C(=O)NS(=O)(=O)c4ccc(NC5CCN(CC(F)(F)F)CC5)c([N+](=O)[O-])c4)c(Oc4ccccc4)c3)CC2)c1 [Example 137, 4-[4-({4′-chloro-4-[2-(dimethylamino)ethoxy]-1,1′-biphenyl-2-yl}methyl)piperazin-1-yl]-N-[(3-nitro-4-{[1-(2,2,2-trifluoroethyl)piperidin-4-yl]amino}phenyl)sulfonyl]-2-phenoxybenzamide] | 52.4 | >178
O=C(NS(=O)(=O)c1ccc(NCC2CCOCC2)c([N+](=O)[O-])c1)c1ccc(N2CCN(Cc3cc(OCCN4CCCC4)ccc3-c3ccc(Cl)cc3)CC2)cc1Oc1ccccc1 [Example 138, 4-(4-{[4′-chloro-4-(2-pyrrolidin-1-ylethoxy)-1,1′-biphenyl-2-yl]methyl}piperazin-1-yl)-N-({3-nitro-4-[(tetrahydro-2H-pyran-4-ylmethyl)amino]phenyl}sulfonyl)-2-phenoxybenzamide] | 574.9 | 616
CC(C)N(CCOc1ccc(-c2ccc(Cl)cc2)c(CN2CCN(c3ccc(C(=O)NS(=O)(=O)c4ccc(NCC5CCOCC5)c([N+](=O)[O-])c4)c(Oc4ccccc4)c3)CC2)c1)C(C)C [Example 139, 4-[4-({4′-chloro-4-[2-(diisopropylamino)ethoxy]-1,1′-biphenyl-2-yl}methyl)piperazin-1-yl]-N-({3-nitro-4-[(tetrahydro-2H-pyran-4-ylmethyl)amino]phenyl}sulfonyl)-2-phenoxybenzamide] | 103.1 | 841
O=C(NS(=O)(=O)c1ccc(NCC2CCOCC2)c([N+](=O)[O-])c1)c1ccc(N2CCN(Cc3ccccc3-c3ccc(Cl)cc3)CC2)cc1Oc1ccc2c(c1)CCN2 [Example 140, 4-{4-[(4′-chloro-1,1′-biphenyl-2-yl)methyl]piperazin-1-yl}-2-(2,3-dihydro-1H-indol-5-yloxy)-N-({3-nitro-4-[(tetrahydro-2H-pyran-4-ylmethyl)amino]phenyl}sulfonyl)benzamide] | >139.7 | >23
O=C(NS(=O)(=O)c1ccc(NCCCN2CCCC2)c([N+](=O)[O-])c1)c1ccc(N2CCN(CC3=C(c4ccc(Cl)cc4)CCCCC3)CC2)cc1Oc1cccc2[nH]ccc12 [Example 141, 4-(4-{[2-(4-chlorophenyl)cyclohept-1-en-1-yl]methyl}piperazin-1-yl)-2-(1H-indol-4-yloxy)-N-({3-nitro-4-[(3-pyrrolidin-1-ylpropyl)amino]phenyl}sulfonyl)benzamide] | 42.6 | >661
O=C(NS(=O)(=O)c1ccc(NCCCN2CCCC2)c([N+](=O)[O-])c1)c1ccc(N2CCN(CC3=C(c4ccc(Cl)cc4)CCCCCC3)CC2)cc1Oc1cccc2[nH]ccc12 [Example 142, 4-(4-{[2-(4-chlorophenyl)cyclooct-1-en-1-yl]methyl}piperazin-1-yl)-2-(1H-indol-4-yloxy)-N-({3-nitro-4-[(3-pyrrolidin-1-ylpropyl)amino]phenyl}sulfonyl)benzamide] | 27.8 | >185
O=C(NS(=O)(=O)c1ccc(NCCCN2CCCC2)c([N+](=O)[O-])c1)c1ccc(N2CCN(CC3=C(c4ccc(Cl)cc4)CCC3)CC2)cc1Oc1cccc2[nH]ccc12 [Example 143, 4-(4-{[2-(4-chlorophenyl)cyclopent-1-en-1-yl]methyl}piperazin-1-yl)-2-(1H-indol-4-yloxy)-N-({3-nitro-4-[(3-pyrrolidin-1-ylpropyl)amino]phenyl}sulfonyl)benzamide] | 33.8 | >251
CN1CCC(Nc2ccc(S(=O)(=O)NC(=O)c3ccc(N4CCN(CC5=C(c6ccc(Cl)cc6)CC(C)(C)C5)CC4)cc3Oc3cccc4[nH]ccc34)cc2[N+](=O)[O-])CC1 [Example 144, 4-(4-{[2-(4-chlorophenyl)-4,4-dimethylcyclopent-1-en-1-yl]methyl}piperazin-1-yl)-2-(1H-indol-4-yloxy)-N-({4-[(1-methylpiperidin-4-yl)amino]-3-nitrophenyl}sulfonyl)benzamide] | >12.2 | 864
CN1CCC(Nc2ccc(S(=O)(=O)NC(=O)c3ccc(N4CCN(CC5=C(c6ccc(Cl)cc6)CC(C)(C)OC5)CC4)cc3Oc3cccc4[nH]ccc34)cc2[N+](=O)[O-])CC1 [Example 145, 4-(4-{[4-(4-chlorophenyl)-6,6-dimethyl-5,6-dihydro-2H-pyran-3-yl]methyl}piperazin-1-yl)-2-(1H-indol-4-yloxy)-N-({4-[(1-methylpiperidin-4-yl)amino]-3-nitrophenyl}sulfonyl)benzamide] | 401 | 730
CN1CCC(Nc2ccc(S(=O)(=O)NC(=O)c3ccc(N4CCN(CC5=C(c6ccc(Cl)cc6)CCCCCC5)CC4)cc3Oc3cccc4[nH]ccc34)cc2[N+](=O)[O-])CC1 [Example 146, 4-(4-{[2-(4-chlorophenyl)cyclooct-1-en-1-yl]methyl}piperazin-1-yl)-2-(1H-indol-4-yloxy)-N-({4-[(1-methylpiperidin-4-yl)amino]-3-nitrophenyl}sulfonyl)benzamide] | >14.9 | 145
CN1CCC(Nc2ccc(S(=O)(=O)NC(=O)c3ccc(N4CCN(CC5=C(c6ccc(Cl)cc6)CCCCC5)CC4)cc3Oc3cccc4[nH]ccc34)cc2[N+](=O)[O-])CC1 [Example 147, 4-(4-{[2-(4-chlorophenyl)cyclohept-1-en-1-yl]methyl}piperazin-1-yl)-2-(1H-indol-4-yloxy)-N-({4-[(1-methylpiperidin-4-yl)amino]-3-nitrophenyl}sulfonyl)benzamide] | >1284.0 | 1895
CN1CCC(Nc2ccc(S(=O)(=O)NC(=O)c3ccc(N4CCN(CC5=C(c6ccc(Cl)cc6)CCCC5)CC4)cc3Oc3cccc4[nH]ccc34)cc2[N+](=O)[O-])CC1 [Example 149, 4-(4-{[2-(4-chlorophenyl)cyclohex-1-en-1-yl]methyl}piperazin-1-yl)-2-(1H-indol-4-yloxy)-N-({4-[(1-methylpiperidin-4-yl)amino]-3-nitrophenyl}sulfonyl)benzamide] | >2490.6 | 1298
CN1CCC(Nc2ccc(S(=O)(=O)NC(=O)c3ccc(N4CCN(CC5=C(c6ccc(Cl)cc6)CC(C)(C)OC5)CC4)cc3Oc3ccc4[nH]ccc4c3)cc2[N+](=O)[O-])CC1 [Example 150, 4-(4-{[4-(4-chlorophenyl)-6,6-dimethyl-5,6-dihydro-2H-pyran-3-yl]methyl}piperazin-1-yl)-2-(1H-indol-5-yloxy)-N-({4-[(1-methylpiperidin-4-yl)amino]-3-nitrophenyl}sulfonyl)benzamide] | 667 | 509
CN1CCC(Nc2ccc(S(=O)(=O)NC(=O)c3ccc(N4CCN(CC5=C(c6ccc(Cl)cc6)CCCCC5)CC4)cc3Oc3ccc4[nH]ccc4c3)cc2[N+](=O)[O-])CC1 [Example 151, 4-(4-{[2-(4-chlorophenyl)cyclohept-1-en-1-yl]methyl}piperazin-1-yl)-2-(1H-indol-5-yloxy)-N-({4-[(1-methylpiperidin-4-yl)amino]-3-nitrophenyl}sulfonyl)benzamide] | >4074.1 | 642
CN1CCC(Nc2ccc(S(=O)(=O)NC(=O)c3ccc(N4CCN(CC5=C(c6ccc(Cl)cc6)CC(C)(C)CC5)CC4)cc3Oc3ccccc3)cc2[N+](=O)[O-])CC1 [Example 152, 4-(4-{[2-(4-chlorophenyl)-4,4-dimethylcyclohex-1-en-1-yl]methyl}piperazin-1-yl)-N-({4-[(1-methylpiperidin-4-yl)amino]-3-nitrophenyl}sulfonyl)-2-phenoxybenzamide] | 15.8 | 283
CN(C)CCCNc1ccc(S(=O)(=O)NC(=O)c2ccc(N3CCN(Cc4ccccc4-c4ccc(Cl)cc4)CC3)cc2Oc2ccccc2)cc1[N+](=O)[O-] [Example 154, 4-{4-[(4′-chloro-1,1′-biphenyl-2-yl)methyl]piperazin-1-yl}-N-[(4-{[3-(dimethylamino)propyl]amino}-3-nitrophenyl)sulfonyl]-2-phenoxybenzamide] | 40.4 | 343
